Reference: PMC3556473, “Absorption, metabolism and excretion of [^14C]pomalidomide in humans following oral administration” (Cancer Chemotherapy and Pharmacology, 2012)
Where “and” joins values, the source holds several entries; their conditions need not be identical. Equal entries are not always repeated. Where two headings read alike, the source gives them in different places.

Tests used:
OPM-2 MM cell = assay: Inhibition of MM cell proliferation ([3H]-thymidine incorporation, 3-day culture); format: cell-based; conditions: Homo sapiens
Protocol: (§1) Metabolites and hydrolysis products of pomalidomide were tested for pharmacological activity in the following three assay systems: (1) inhibition of MM cell proliferation, (2) enhancement of primary human T cell IL-2 production and (3) inhibition of TNF-α production by lipopolysaccharide (LPS)-stimulated human peripheral blood mononuclear cells (PBMC). For all three assay types, compounds were dissolved in 100 % dimethyl sulfoxide (DMSO) and diluted into complete cell culture medium, consisting of Roswell Park Memorial Institute (RPMI)-1640 plus penicillin, streptomycin and L-glutamine (Mediatech, Manassas, VA). The MM cell proliferation cell culture medium contained 10 % fetal bovine serum, while the primary human cell cultures contained 10 % human AB serum (Invitrogen, Brown Deer, WI). The final DMSO concentration in the cell culture media was 0.25 %.
(§2) The human MM cell line OPM-2 was obtained from DSMZ (Braunschweig, Germany), and human MM cell lines U266 B1 and NCI-H929 were obtained from ATCC (Manassas, VA). Inhibition of MM cell proliferation was assessed by the [^3H]-thymidine incorporation assay in a 3-day culture in the presence of compounds in complete medium, as previously described. Primary human T cells were isolated from PBMC by negative selection using the RosetteSep T Cell Enrichment Cocktail (STEMCELL Technologies, Tukwila, WA) according to the manufacturer’s procedures. Costimulation of T cell IL-2 production was measured in a 2-day culture of primary human T cells isolated from healthy donors stimulated with anti-CD3 antibody in the presence of compounds, as previously described. Inhibition of TNF-α production by LPS-stimulated human PBMC was measured in a 1-day culture in the presence of compound, as previously described.

U266 MM cell = assay: as above; format: cell-based; conditions: Homo sapiens, U-266
Protocol: as §1, §2

H929 MM cell = assay: as above; format: cell-based; conditions: Homo sapiens, NCI-H929
Protocol: as §1, §2

T cell IL-2 production = assay: Enhancement of primary human T cell IL-2 production (anti-CD3 stimulated, 2-day culture); format: cell-based; conditions: 48 h, anti-CD3 stimulated primary human T cells
Protocol: as §1, §2

[1] = Metabolite profiling of urine and feces (% of dose excreted); format: in vivo, human; conditions: for % of dose excreted, Feces: pooled feces 0–96 h; for % of dose excreted, Feces / % of dose excreted, Urine: radiochromatography; for % of dose excreted, Urine: pooled urine 0–72 h
Protocol: For each subject, urine samples were pooled using an equal percentage by volume of the 0–6, 6–12, 12–24, 24–48 and 48–72 h samples. Pools of the 0–6, 6–12, 12–24, 24–48 and 48-72 h collections were also prepared across subjects and analyzed for metabolite profiling. Samples were mixed and centrifuged prior to the supernatants being transferred to fresh tubes for metabolite profiling analysis.
For each subject, fecal homogenates for metabolite profiling were pooled using an equal percentage by weight of the 0–24, 24–48, 48–72 and 72–96 h samples. Pools of the 0–24, 24-48, 48–72 and 72–96 h collections were also prepared across subjects and analyzed for metabolite profiling. An aliquot of each pool was extracted with acetonitrile; samples were mixed and centrifuged. The supernatant was removed and the pellets re-suspended with 0.1 % formic acid and extracted with acetonitrile. The combined supernatants were evaporated to dryness under a stream of nitrogen and the residue re-suspended in methanol:0.1 % formic acid in water (1:1). Samples were assayed for extraction recovery prior to metabolite profiling. A control fecal homogenate spiked with [^14C]pomalidomide was extracted in a similar manner to determine the extraction efficiency and stability of [^14C]pomalidomide.
(§3) HPLC analysis for metabolite profiling (HPLC Method 1) was performed using a Waters 2695 Alliance Separation Module (Waters Corp., Milford, MA) with the autosampler set to 4 °C. [^14C]Pomalidomide and metabolites were separated using an ACE C18 column (150 × 4.6 mm, 3 μm; Advanced Chromatography Technologies, Aberdeen, Scotland) equipped with an ACE C18 guard column (10 × 3 mm, 3 μm). The mobile phases used were 25 mM ammonium acetate in water: pH 5.5 with formic acid (mobile phase A) and methanol (mobile phase B). The column temperature was 30 °C, and the flow rate was 0.7 mL/min. The linear gradient was delivered as follows: 0–2 min 100 % A; 2–38 min to 64 % A; 38–44 min to 0 % A; 44–48 min hold at 0 % A; return to initial conditions over 2 min.
(§4) Radioactivity profiles for plasma and excreta were determined by collecting the column eluate into 96-well Deepwell LumaPlates™ at a rate of 0.25 min/fraction. The plates were dried and the radioactivity in each well determined using a PerkinElmer TopCount® NXT™ Microplate Scintillation Counter. HPLC radiochromatograms were reconstructed using LC-ARC data handling software.

[2] = Plasma pharmacokinetics of pomalidomide and circulating metabolites by radiochromatography (metabolite profiling); format: in vivo, human; design: AUC0–24 / AUC0−∞: concentration or dose not given beside the values; conditions: for Plasma (% AUC relative to TRA): AUC0–24 (unchanged drug or metabolite)/AUC0–24 (TRA) * 100 %; for Tmax / half-life: human, oral, 2 mg; for Tmax: median and range; for half-life: male, read-out: t ½ (converted); for AUC/AUCTRA: plasma exposure relative to total radioactivity
Protocol: Individual plasma samples collected from all subjects at 1, 2.5, 4, 6, 10, 12 and 24 h post-dose were analyzed for metabolite profiling. Samples were extracted with acetonitrile, the supernatant was removed, and the pellet was washed with 0.1 % formic acid in water and extracted again with acetonitrile. The combined supernatants were adjusted to 15 or 25 mL by adding acetonitrile then evaporated to dryness under a stream of nitrogen. The residues were re-suspended in 0.1 % formic acid in water, assayed for extraction recovery and analyzed for metabolite profiling. A control plasma sample spiked with [^14C]pomalidomide was extracted in a similar manner to determine the extraction efficiency and stability of [^14C]pomalidomide.
as §3, §4
For pomalidomide and metabolite concentrations in plasma based on metabolite profiling data, pharmacokinetic data were generated by non-compartmental analysis of plasma versus time profiles using WinNonlin (version 4.1, Enterprise Edition).

[3] = design: method as in earlier work; conditions: ref 2 and unpublished data, cited from earlier work
[4] = plasma, plasma, radiochromatography, geometric mean (%CV)
[5] = plasma, radiochromatography, geometric mean (%CV)

| SMILES | IC50 (OPM-2 MM cell) [nM] | IC50 (U266 MM cell) [nM] | IC50 (H929 MM cell) [nM] | EC50 (T cell IL-2 production) [nM] | % of dose excreted, Feces [1] [%] | % of dose excreted, Urine [1] [%] | Plasma (% AUC relative to TRA) [2] [%] | Tmax ([2]; plasma, radiochromatography) [h] | half-life [2, 4] [h] | AUC/AUCTRA [2] | AUC0–24 [2, 5] | AUC0−∞ [2, 5] | C max [2, 5] | further results |
| --- | --- | --- | --- | --- | --- | --- | --- | --- | --- | --- | --- | --- | --- | --- |
| Nc1c(O)ccc2c1C(=O)N(C1CCC(=O)NC1=O)C2=O (stereo not shown) [Metabolite M17, 5-hydroxy pomalidomide] | > 1000 | > 1000 | > 1000 | > 10000 | 2.8 | 3.2 | 4.0 | 2.5 | 11 | 4.00% | 7.76 (24.8) ngEq*h/mL | 11.5 (36.9) ngEq*h/mL | 0.68 (33.3) ngEq/mL | – |
| Nc1cccc2c1C(=O)N(C1CCC(=O)NC1=O)C2=O (racemic) [Pomalidomide, (RS)-4-amino-2-(2,6-dioxo-piperidin-3-yl)-isoindoline-1,3-dione] | 38 | 28 | 35 | 22 | 7.7 | 2.2 | 69.6 | 2.5 | 9.4 | 70% and 69.6% | 135 (33.4) ngEq*h/mL | 165 (43.2) ngEq*h/mL | 11.0 (22.5) ngEq/mL | mean C max and AUC accumulation ratios ([3]; once-daily administrations, MM patients): < 2; half-life ([3]; relapsed or refractory MM patients): 6.5 to 8.0 h; Percent dose excreted in human urine, Parent ([1]; pomalidomide, this study): 2.2%; Percent dose excreted in human urine, Total ([1]; pomalidomide, this study): 72.8%; % of dose excreted, Feces ([1]; listed as pomalidomide): 8%; dose excreted as unchanged drug (excreta) ([1]; urine + feces, % of the dose): 10%; AUC/AUCTRA ([2]; listed as pomalidomide): approximately 70%; t ½ [2, 5]: 9.41 (25.0) h |
